Results reported in paper PMC2697668 (Organic letters, 2009).

Biological target: recombinant yeast Hsp90
Assay: ATPase inhibition assay
Format: biochemical, Saccharomyces cerevisiae
Conditions: read-out: ATPase; incubated with ATP

IC50: 400 nM
Structure (SMILES): C[C@@H]1C[C@H]2O[C@@H]2/C=C\C=C\C(=O)Cc2c(Cl)c(O)cc(O)c2C(=O)O1 [RDC]
